{
  "source": "patent US5798381A",
  "about": "“Biologically active bistramides, process for their production and their applications in therapy” (Institut Francais de Recherche Scientifique pour le …, priority 1993, dated 1998)",
  "key": {"[1]": {"tested_on": "mice", "test": "Acute toxicity (LD50), intravenous injection in mice", "type": "in vivo", "conditions": "statement in words", "experimental": "The LD50 of these bistramides is in fact of the order of 1.7 mg/kg (measured in mice, after injection of the product by intravenous route as a single dose).\nThe \"LD50 \" of the products of the invention has been measured for mice after injection of the products by intravenous route."}, "[2]": {"tested_on": "KB", "test": "Cytotoxicity, 50% inhibition of cell growth, KB", "type": "cell-based", "conditions": "Homo sapiens, read-out: IC50 (50% inhibition of cell growth)", "experimental": "(§1) The cytoxicity results are recorded hereafter as the IC50 in μg/ml (concentration corresponding to a 50% inhibition of cell growth) on 6 tumoural lines namely KB, P388, P388/dox (resistant to doxorubicin), B16 and H429 and NSCLC-N6, which are human cells of non-small cell bronchopulmonary carcinoma type.\n(§2) The determinations were carried out according to the protocol given in Cancer Chemother. Pharmacol. (1991) 28:283-292 by Roussakis et al."}, "[3]": {"tested_on": "P388 (p388s)", "test": "Cytotoxicity, 50% inhibition of cell growth, P388", "type": "cell-based", "conditions": "Mus musculus, P388/S; p388s; read-out: IC50 (50% inhibition of cell growth)", "experimental": "as §1, §2"}, "[4]": {"tested_on": "P388/dox (p388r)", "test": "Cytotoxicity, 50% inhibition of cell growth, P388/dox (resistant to doxorubicin)", "type": "cell-based", "conditions": "Mus musculus", "experimental": "as §1, §2"}, "[5]": {"tested_on": "B16", "test": "Cytotoxicity, 50% inhibition of cell growth, B16", "type": "cell-based", "conditions": "Mus musculus, B16; read-out: IC50 (50% inhibition of cell growth)", "experimental": "as §1, §2"}, "[6]": {"tested_on": "HT 29", "test": "Cytotoxicity, 50% inhibition of cell growth, HT 29", "type": "cell-based", "conditions": "Homo sapiens; HT 29; read-out: IC50 (50% inhibition of cell growth)", "experimental": "as §1, §2"}, "[7]": {"tested_on": "NSCLC.N6-L16", "test": "Cytotoxicity, 50% inhibition of cell growth, NSCLC-N6", "type": "cell-based", "conditions": "Homo sapiens; NSCLC.N6-L16; read-out: IC50 (50% inhibition of cell growth)", "experimental": "as §1, §2"}, "[8]": {"tested_on": "Plasmodium vinckei petteri", "test": "PETERS test (4-day anti-malarial test in mice)", "type": "in vivo, Plasmodium vinckei petteri in SWISS female white mice", "conditions": "15 mg/kg/day, 4 days, sub-cutaneous; for percentage inhibition of parasitemia: D4", "experimental": "The animals used are SWISS (IFFA CREDO) female white mice weighing approximately 30 grams. Five mice are distributed per batch.\nThe species Plasmodium vinckei petteri used comes from the strain 279 BY (see article by Cambie G et al. in CR.Acad.Sci.PARIS 310, series III, 183-188). This plasmodia carries out a schizogonic cycle in 24 hours in a synchronous fashion. Using the freezing-thawing technique for infected blood, only the merozoite stage resists, the other forms being destroyed.\nObservation of blood parasites takes place on stained smears carried out by taking a drop of blood from the tail. The smears are then stained with May-Grumwald-Giesma. Calculation of the parasitemia (number of parasites per 100 red blood corpuscles) is carried out on smears.\nIn these trials bistramide D is used in sterile physiological water containing 5% DMSO.\nThe product is injected by sub-cutaneous route in the thigh.\nIn order to verify the activity of the compound studied, the PETERS test is used which constitutes the reference for the screening of molecules with anti-malarial activity. (PETERS W. 1980. Chemotherapy and Drug resistance in Malaria, vol II, Academic Press).\nAfter treatment for 4 days, the percentage of red blood corpuscles parasitized is compared on thin smears between the control batch and the treated batch. In this way a percentage inhibition is established. […]\na) injection of 10^7 of parasitized red blood corpuscles by I.P. route (D0) b) injection of Bistramide D at 15 mg/kg/day, for 4 days by sub-cutaneous route (D0, D1. D2, D3) c) checking the parasitemia on smears on D4"}, "[9]": {"tested_on": "Plasmodium vinckei petteri", "test": "Study of the parasitic stage susceptible to bistramides", "type": "in vivo, Plasmodium vinckei petteri in SWISS female white mice", "conditions": "for patent period: time necessary for the parasitemia to reach 1%: 15 mg/kg, control 5 D", "experimental": "In order to appreciate the parasitic stage or stages the most susceptible to the action of the bistramides of the invention, the effect of these bistramides was studied on each parasitic stage predominant during the cell cycle for a given species of Plasmodium.\nThe results given hereafter concern the effect of bistramide B on the parasitic stages of Plasmodium vinckei petteri.\nAfter infestation of the mice, five batches of five mice are constituted. Each batch is treated with a dose of 15 mg/kg of bistramide D at the moment when one of the stages predominates.\nIn addition, the following batches are prepared: one control batch, one batch of merozoites, one ring batch, one batch of young trophozoites, one batch of middle trophozoites and one batch of old trophozoites.\nThe following are evaluated: the retardation of parasitemia or the patent period as the time in days necessary for the parasitemia to reach 1%."}, "[10]": {"tested_on": "Plasmodium vinckei petteri", "test": "Flow cytometry study of parasitized murine red blood corpuscles", "conditions": "G1 phase, maturation stage", "description": "The consequence of this is to halt the proliferation at the middle and old trophozoite stage."}},
  "data": [
    {"smiles": "C/C=C/C(O)CC1CCC(C)C(CC(=O)NCC(O)C(C)C(=O)NCCCC2OC3(CCCC(CCC(C)/C=C(\\C)C(C)O)O3)CCC2C)O1", "note": "(centres unmarked) [Bistramide D]", "values": [
      {"measurement": "toxicity in vivo", "setting": "[1]", "value": "less toxic"},
      {"measurement": "IC50", "setting": "[2]", "value": 10, "unit": "µg/mL"},
      {"measurement": "IC50", "setting": "[3]", "value": 0.36, "unit": "µg/mL"},
      {"measurement": "IC50", "setting": "[4]", "value": 5.82, "unit": "µg/mL"},
      {"measurement": "IC50", "setting": "[5]", "value": 0.1, "unit": "µg/mL"},
      {"measurement": "IC50", "setting": "[6]", "value": 2.76, "unit": "µg/mL"},
      {"measurement": "IC50", "setting": "[7]", "value": 3.43, "unit": "µg/mL"},
      {"measurement": "percentage inhibition of parasitemia", "setting": "[8]; trial A", "value": 85, "unit": "%"},
      {"measurement": "parasitemia, treated batch on D4", "setting": "[8]; trial A, controls 4%", "value": 0.64, "unit": "%"},
      {"measurement": "percentage inhibition of parasitemia", "setting": "[8]; trial B", "value": 87, "unit": "%"},
      {"measurement": "parasitemia, treated batch on D4", "setting": "[8]; trial B, controls 4%", "value": 0.50, "unit": "%"},
      {"measurement": "percentage inhibition of parasitemia", "setting": "[8]; trial C", "value": 81, "unit": "%"},
      {"measurement": "parasitemia, treated batch on D4", "setting": "[8]; trial C, controls 1.2%", "value": 0.23, "unit": "%"},
      {"measurement": "stage selectivity / significance versus control batch", "setting": "[9]; KRUSKAL-WALLIS unilateral test, middle and old trophozoite", "value": "selective activity"},
      {"measurement": "patent period: time necessary for the parasitemia to reach 1%", "setting": "[9]; merozoite batch", "value": 5, "unit": "D"},
      {"measurement": "patent period: time necessary for the parasitemia to reach 1%", "setting": "[9]; middle trophozoite batch", "value": 6.25, "unit": "D"},
      {"measurement": "patent period: time necessary for the parasitemia to reach 1%", "setting": "[9]; old trophozoite batch", "value": 6.2, "unit": "D"},
      {"measurement": "patent period: time necessary for the parasitemia to reach 1%", "setting": "[9]; ring batch", "value": 5.4, "unit": "D"},
      {"measurement": "patent period: time necessary for the parasitemia to reach 1%", "setting": "[9]; young trophozoite batch", "value": 5.6, "unit": "D"},
      {"measurement": "blocking of the parasite / of parasitic proliferation", "setting": "[10]", "value": "partial blocking of the parasite at its maturation stage"}
    ]}
  ]
}
